These results are taken from PubChem BioAssay (NCI).

“And” between values parts separate entries of the source, which are not always exact repeats. Equal values may be shown once.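 Step 1: Grow cells in 96-well plates. Step 2: Expose to compound for 48 hours at 5 concentrations. Step 3: Interpolate endpoints linearly; if unreached, use highest concentration. Abbreviation: GI50, concentration required for 50% inhibition of growth. TGI: concentration producing complete growth inhibition.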

Among the test systems are ACHN renal; COLO 205 colon; HCT-15 colon; IGROV1 ovarian; LOX IMVI melanoma; MALME-3M melanoma; MDA-MB-435; MOLT-4 leukemia; SF-295 CNS; SR leukemia.
Test in all cases: DTP human tumour cell line panel, 48 h

Regarding `COc1ccc(-c2nn(-c3cccc(NC(=O)Nc4cccc(C(F)(F)F)c4)c3)cc2-c2ccncc2)cc1Cl`, the GI50 (as a rule, the concentration giving 50% growth inhibition) was 1.88 µM with ACHN renal; 1.69 µM with COLO 205 colon; 1.81 µM in the experiment with HCT-15 colon; 3.73 µM in the experiment with IGROV1 ovarian; 3.02 µM in the experiment on LOX IMVI melanoma; 2.07 µM in the experiment on MALME-3M melanoma. Besides, the GI50 was 1.45 µM in the experiment with MDA-MB-435, 1.76 µM in the experiment with MOLT-4 leukemia, 1.69 µM in the experiment on SF-295 CNS and 1.31 µM with SR leukemia. In addition, the concentration for total growth inhibition (TGI) – broadly, the concentration giving total growth inhibition – was over 100 µM in the experiment with ACHN renal; 3.69 µM in the experiment with COLO 205 colon; over 100 µM in the experiment on HCT-15 colon; over 100 µM in the experiment on IGROV1 ovarian; over 100 µM in the experiment on LOX IMVI melanoma; 8.72 µM in the experiment on MALME-3M melanoma. Besides, the TGI in the experiment on MDA-MB-435 stood at 4.67 µM; in the experiment on MOLT-4 leukemia, 8.38 µM; in the experiment with SF-295 CNS, 7.32 µM; in the experiment with SR leukemia, 4.84 µM.

With `O=[N+]([O-])c1ccc(O)c2ncccc12`, the GI50 was 42.5 µM and 4.81 µM in the experiment on ACHN renal; 3.55 µM in the experiment with MALME-3M melanoma; 22 µM and 2.28 µM in the experiment on SF-295 CNS; 3.01 µM with SR leukemia. Besides, the TGI is > 100 µM and 35.8 µM in the experiment with ACHN renal; > 100 µM and 10.7 µM with COLO 205 colon; > 100 µM and 18.8 µM with HCT-15 colon; > 100 µM and 13.8 µM in the experiment on IGROV1 ovarian; > 100 µM and 13 µM in the experiment with LOX IMVI melanoma; 17.4 µM with MALME-3M melanoma. Moreover, the TGI in the experiment on MDA-MB-435 is > 100 µM and 15.2 µM; in the experiment with MOLT-4 leukemia, > 100 µM and 10.4 µM; in the experiment on SF-295 CNS, 82.4 µM and 13.1 µM; with SR leukemia it was 9.29 µM.

Turning to `COc1ccc2c(c1)C(=O)c1c-2n(CCCCl)c(=O)c2cc(N(C)C)ccc12`, the GI50 in the experiment with ACHN renal was 36 µM; with COLO 205 colon, over 100 µM; in the experiment with HCT-15 colon it was over 100 µM; in the experiment on IGROV1 ovarian, 33 µM; with LOX IMVI melanoma, 99.1 µM; in the experiment with MALME-3M melanoma it was 63.8 µM. The GI50 with MDA-MB-435 was 81.8 µM; in the experiment with MOLT-4 leukemia, over 100 µM; in the experiment on SF-295 CNS, over 100 µM; in the experiment with SR leukemia, 19.9 µM. For the same molecule, the TGI in the experiment on ACHN renal, in the experiment with COLO 205 colon, with HCT-15 colon, in the experiment on IGROV1 ovarian, with LOX IMVI melanoma and with MALME-3M melanoma was over 100 µM throughout. Besides, the TGI in the experiment with MDA-MB-435, with MOLT-4 leukemia, in the experiment on SF-295 CNS and with SR leukemia was over 100 µM in each case.
